Entries after “also recorded” stand apart in the source; their conditions may differ.
How the values were obtained:
ATGL [1] = assay: qPCR of ATGL mRNA in HepG2 cells; format: cell-based; details: 5 μM and 10 μM, 24 hours
Experimental: (§1) Ubiquitination of ATGL by COP1 is a post translational event, therefore, it is expected that the mRNA level of ATGL will not change compared to control upon treatment with the compound of the present disclosure which inhibit COP1. To establish this, HepG2 cells were treated with 5 μM and 10 μM of the compounds 9, 107, 171, 179 and 73 for 24 hours. RNA was isolated using TRIzol reagent followed by chloroform treatment and precipitation with isopropanol. cDNA was obtained from the isolated RNA and qPCR was carried out using SyBr green reagent. COP1 and ATGL gene expression levels were checked. 18s was used as control. FIG. 8 illustrates that compounds exert no effect on the mRNA levels of ATGL.

[2] = Lipophilicity assay (octanol/buffer); format: physicochemical
Experimental: 1.56 g NaH2PO4·2H2O was dissolved in 0.5 L water in a 1 L beaker. After adjusting pH to 7.4 using NaOH solution, the volume was made up to 1 L. Equal volumes of sodium phosphate buffer (10 mM, pH 7.4) and n-octanol were added to a separation funnel and mixed thoroughly by shaking and inverting the funnel several times. The two layers were allowed to separate for overnight and then dispensed in two separate glass bottles. 10 mM stock solution was prepared in 100% DMSO and stored at 4° C. 495 μL of organic phase (1-octanol) was added to each well of a 2 mL deep well plate, followed by 495 μL of buffer and 10 μL of test compound was added. The plate was incubated for 3 hr at room temperature on a plate shaker at 500 rpm. After incubation, the samples were allowed to equilibrate for 20 min and then centrifuged at 4000 rpm for 30 min for complete phase separation and analysed by LC-UV.
Log D=Log (area of octanol/area of buffer)

COP1 [3] = biological target: COP1 (Homo sapiens, UniProt Q8NHY2); assay: In vitro ubiquitination of purified ATGL by COP1 with UbcH6; format: biochemical; set-up: host or cells: HEK293A; details: 5 μM compound, COP1 overexpressing HEK293A lysate
From the text: Purification of ATGL protein and obtaining COP1 overexpressing cell lysate: Myc-ATGL plasmid and Myc-DDK-COP1 plasmid ([…] each) were transfected separately in cultured HEK293A cells with the help of Lipofectamine2000 (Invitrogen). Cells were harvested in Lysis Buffer and protein solution was extracted as described previously. The Lysis Buffer used to harvest COP1 overexpressing cells had 0.1% SDS supplemented in it. The concentration of protein was estimated using Bradford assay. For source of E3 ligase, the total cell lysate from COP1 overexpressing HEK293A cells were used.
For purification of Myc-ATGL: 1 ml of Ni^2+-NTA resin (Roche) was taken in a 15 ml centrifuge tube and centrifuged at 2000 RPM for 5 minutes. The upper ethanol layer was discarded and the pellet was washed in 1×PBS twice to remove any remaining traces of ethanol. The pellet was finally washed once with Lysis Buffer for equilibration. […] The tube was incubated overnight at 4° C. in a rotary shaker.
The next day, the solution was centrifuged at 2000 RPM for 10 minutes and the supernatant collected. Lysis Buffer (containing protease inhibitor cocktail twice the previous concentration) was used for washing the beads twice to remove non-specific and unattached reactants in a stringent condition. The beads were finally washed once with 1×PBS containing the same amount of protease inhibitor for equilibration. 300 μl of 500 mM Imidazole (Sigma Aldrich) solution in 1×PBS was added to the resin for elution of ATGL and centrifuged at 2000 RPM for 30 minutes and the eluted protein was collected. To the separated resin, 300 μl of 1M Imidazole solution was added and centrifuged at 2000 RPM for 30 minutes and the second elute was collected. […] of eluted protein from each elution was boiled with 5 μl of Laemmli's buffer at 95° C. for 10 minutes and run in 10% SDS-PAGE gel. The supernatant collected before elution of ATGL and the proteins still attached to the Ni^2+-NTA resin were also run in the SDS-PAGE. The resolved proteins were subsequently transferred on PVDF membranes and probed with anti-myc primary antibody to check the presence of purified ATGL in the elute. Also to check the yield of the purified protein, 40 μl of the elute was run in 10% SDS page and stained with Coomassie Brilliant Blue solution followed by destaining with methanol, glacial acetic acid and water in a 50:40:10 ratio.
For identifying the E2 ubiquitin-conjugating enzyme responsible for ATGL ubiquitination by COP1, an in vitro ubiquitinylation kit (Enzo Life Sciences) was used. The assay was reconstituted as per manufacturer's protocol with the panel of E2 conjugating enzymes provided and other required components at the mentioned concentrations. The reaction was carried out for 6 hours following which it was quenched as per directions with the provided 2× non-reducing gel buffer and then analysed by western blotting.
Having identified the E2 ubiquitin conjugating enzyme as UbcH6, ubiquitination assay was set up in vitro as described previously with 5 μM of the compound 9, 107, 171, 179 and 73 followed by quenching and analysis by western blotting.
Ubiquitination of a target protein is carried out in a three step process involving three different enzymes: E1 ubiquitin activating enzyme, E2 ubiquitin conjugating enzyme and E3 ubiquitin ligase. In humans, there is only one E1 ubiquitin activating enzyme and multiple E2 and E3 enzymes. […]

COP1 [4] = assay: qPCR of COP1 mRNA in HepG2 cells; format: cell-based; details: 5 μM and 10 μM, 24 hours
Experimental: as §1

Plasma stability assay = format: in vitro ADME, human
Experimental: 1 mM Stock of test compound was prepared from 10 mM initial stock solution of compounds by diluting 10 μL of 10 mM stock with 90 μL of DMSO. Then 10 μL of 1 mM stock was diluted with 90 µL of DMSO to give 100 μM concentration. The frozen plasma was thawed at room temperature and centrifuged at 1400 rpm at 4° C., for 15 minutes. Approximately […] of the clear supernatant fraction was transferred to a separate tube and was used for the assay. Final working stock of 1 μM was prepared by diluting 3 μL of 100 μM with 297 μL of plasma. Plasma containing the test compound was incubated for 120 min at 37° C. in shaker with 500 rpm. 50 μL of aliquot of sample at 0, 15, 30, 60 and 120 minutes were precipitated with 150 μL of acetonitrile containing internal standard and centrifuged at 4000 rpm at 4° C. for 20 minutes. 120 μL of supernatant was diluted with 120 μL of water and analyzed by LC-MS/MS.

ATGL [5] = assay: Western blot of ATGL level in HepG2 cells; format: cell-based; set-up: key to Increase in ATGL level: + = slight or in insignificant; ++ = Moderate; +++ and ++++ = active; +++ and ++++ = active; +++++ = very active; details: HepG2 cells, western blot, score
How it was run: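 HepG2 cells were treated with compound 24 h (10 μM screen; 50 nM–5 μM dose series) and lysed. 30 μg protein was western blotted for ATGL, with actin as loading reference. ATGL increase was expressed as percent of the 1.6-fold siCOP1 maximum and plotted against log concentration for EC50.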

HepG2 cells = assay: Basal oxygen consumption rate (OCR) by Seahorse; format: cell-based; details: 5 μM, 24 hours, hydrochloride
Experimental: HepG2 cells were plated in Seahorse cell culture microplates (24 well). Cells were treated with 5 μM of compounds 9, 107, 238 and 238a for 24 hours. The calibrator plate was dipped in the calibrator solution and incubated overnight at 37° C. in a non-CO2 incubator. The next day, cells were washed with Agilent Seahorse XF Base Medium, Minimal DMEM twice, making sure to leave at least 50 μl of media in the wells and incubated for 1 hour at 37° C. in a non-CO2 incubator. Following this, oxygen consumption rate was measured in the Seahorse instrument. FIG. 12 illustrates basal oxygen consumption rate of compounds 9, 107, 238a, and 238.

Sequence of COP1 (Homo sapiens, UniProt Q8NHY2) (Q8NHY2 whole entry): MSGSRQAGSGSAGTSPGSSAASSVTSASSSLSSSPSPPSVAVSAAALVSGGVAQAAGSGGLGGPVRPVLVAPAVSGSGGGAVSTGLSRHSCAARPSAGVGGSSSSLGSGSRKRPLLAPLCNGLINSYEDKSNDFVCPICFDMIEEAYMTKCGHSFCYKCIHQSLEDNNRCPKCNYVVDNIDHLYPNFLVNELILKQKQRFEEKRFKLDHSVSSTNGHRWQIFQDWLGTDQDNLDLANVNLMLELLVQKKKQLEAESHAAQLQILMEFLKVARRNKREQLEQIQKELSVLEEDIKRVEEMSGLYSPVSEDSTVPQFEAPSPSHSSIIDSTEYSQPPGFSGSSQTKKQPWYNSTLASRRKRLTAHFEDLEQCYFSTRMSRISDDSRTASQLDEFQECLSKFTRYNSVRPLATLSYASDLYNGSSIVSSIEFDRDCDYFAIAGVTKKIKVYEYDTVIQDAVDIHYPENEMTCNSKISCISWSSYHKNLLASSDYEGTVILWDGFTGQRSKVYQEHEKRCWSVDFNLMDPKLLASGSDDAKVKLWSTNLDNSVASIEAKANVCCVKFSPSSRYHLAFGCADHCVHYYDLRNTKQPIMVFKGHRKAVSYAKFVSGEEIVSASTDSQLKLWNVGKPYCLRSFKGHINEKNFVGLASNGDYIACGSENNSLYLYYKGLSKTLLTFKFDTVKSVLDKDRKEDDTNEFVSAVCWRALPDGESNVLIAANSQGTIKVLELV

| logD ([2]; n-octanol / 10 mM sodium phosphate buffer pH 7.4, LC-UV) | Lipophilicity class from Log D ([2]; pH 7.4) | Mean % remaining at 2 hrs in human Plasma (Plasma stability assay; 1 μM, 37° C., 120 min, LC-MS/MS) [%] | Plasma stability (Plasma stability assay; human plasma, after 2 hours, with respect to Propantheline) | Structure (SMILES) | ATGL mRNA level (ATGL [1]) | ATGL ubiquitination by COP1 in vitro (COP1 [3]) | COP1 mRNA level (COP1 [4]) | Increase in ATGL level (ATGL [5]) | Basal oxygen consumption rate (HepG2 cells) |
| --- | --- | --- | --- | --- | --- | --- | --- | --- | --- |
| 1.95 | ideal lipophilicity | 10.3 | lower plasma stability | COCCn1cnc2ccc(NC(=O)Nc3cccc(C(C)=O)c3)c(Br)c2c1=O [Compound 73, 1-(3-acetylphenyl)-3-(5-bromo-3-(2-methoxyethyl)-4-oxo-3,4-dihydroquinazolin-6-yl)urea] | no significant changes | effective in reducing the ubiquitination of ATGL by COP1 | no significant changes | – | – |
| – | – | – | – | CCC(COC)n1cnc2ccc(NC(=O)Nc3cccc(C(C)=O)c3)cc2c1=O (stereo not drawn) [Compound 171, 1-(3-acetylphenyl)-3-(3-(1-methoxybutan-2-yl)-4-oxo-3,4-dihydroquinazolin-6-yl)urea] | no significant changes | effective in reducing the ubiquitination of ATGL by COP1 | no significant changes | +++ | – |
| – | – | – | – | COCCn1c(CN2CCCCC2)nc2ccc(NC(=O)Nc3cccc(C(C)=O)c3)cc2c1=O.Cl [Compound 238a, 1-(3-acetylphenyl)-3-(3-(2-methoxyethyl)-4-oxo-2-(piperidin-1-ylmethyl)-3,4-dihydroquinazolin-6-yl)urea hydrochloride] | – | – | – | – | higher oxygen consumption rate compared to control; also recorded: increase in the basal OCR values |

— patent US12528777B2, “Quinazolinones derivatives for treatment of non-alcoholic fatty liver disease, preparation and use thereof” (Council of Scientific and Industrial Research, priority 2020, dated 2026)
